The source of these data is patent US20220340582A1, “CANNABINOID DERIVATIVES” (CANOPY GROWTH CORPORATION, priority 2019, published 2022).

In one test the target is T1, human CB2 receptor (Homo sapiens, UniProt P34972).
T1 construct: host or cells: CHO-K1
The test is described as follows: CB2 radioligand competitive binding assay ([3H]CP 55,940 displacement). The settings on record: for Selectivity CB2: fold difference between CB1 and CB2 binding, printed in the column of the receptor with the higher binding affinity. The protocol:
Compounds of the present disclosure were tested for CB1 receptor binding affinity and for CB2 receptor binding affinity. As used herein, “binding affinity” is represented by the IC50 value, which was experimentally determined as described herein. The lower the IC50 value the higher the binding affinity.
The membranes were prepared from CHO-K1 (Chinese hamster ovary) cells stably transfected with the human CB2 receptor (Cat. #ES-111-C; Perkin Elmer, Boston, Mass.). The cells were grown adherently and maintained in Ham's F12 medium containing 10% fetal bovine serum (FBS), penicillin, streptomycin and geneticin (G418) at 37° C. in a humid atmosphere of 5% CO2 following the manufacturer's instructions.
For membrane preparation the cells were washed with PBS and scraped off the plates in cold homogenization buffer (25 mM HEPES (pH 7.4), 2 mM EDTA) containing protease inhibitor cocktail (Sigma Cat. #P8340). The cell suspension was homogenized with a Pro-PK-01200D Polytron Homogenizer (Pro Scientific) and then centrifuged for 30 min at 120,000×g. The supernatant was discarded and the pellet was re-suspended in the homogenization buffer and stored at −80° C. until the time of use.
In this experiment, 3H radiolabeled CP 55,940, i.e. [3H]CP 55,940 (Perkin Elmer, Boston, Mass.), was used as a radioligand for the CB2 receptor to determine the binding affinity of compounds for the CB2 receptor (Scheme 4; above).
The competition binding experiments (single dose and dose-response) were performed by incubating 0.6 nM of [3H]CP55,940 (specific activity 101 Ci/mmol, Perkin Elmer) and different concentrations of compounds disclosed herein with membranes prepared as above from CHO-K1 cells expressing human CB2 receptor (1 μg of protein/well), 50 mM Tris-HCl (pH 7.4), 5 mM MgCl2, 1 mM CaCl2, and 2 mg/mL BSA.
For the dose-response experiments the test compounds were sequentially diluted to provide the desired concentration range for the IC50 determination. In each case the compounds were pre-incubated with the membrane for 20 min, before adding the radioligand.
After incubation with the radioligand for 60 min at 37° C., the incubation was terminated by rapid filtration of assay mixture through MultiScreen®HTS^+96-well filter plates (Millipore, Cat. #MSFCNXB), pre-soaked for 60 min with 50 mM Tris-HCl (pH 7.4) containing 0.33% polyethylenimine (PEI). The nonspecific binding (NSB) was determined in the presence of 10 μM unlabelled CP55,940. After drying the filter plate at 50° C. for at least 60 min, the filter-bound radioactivity was determined by scintillation spectrometry using the 1450 MicroBeta Plate Counter (Perkin Elmer, Boston, MA).

In the next test the target is T2, human CB1 receptor (Homo sapiens, UniProt P21554).
T2 construct: host or cells: CHO-K1
T2 sequence (P21554 whole entry): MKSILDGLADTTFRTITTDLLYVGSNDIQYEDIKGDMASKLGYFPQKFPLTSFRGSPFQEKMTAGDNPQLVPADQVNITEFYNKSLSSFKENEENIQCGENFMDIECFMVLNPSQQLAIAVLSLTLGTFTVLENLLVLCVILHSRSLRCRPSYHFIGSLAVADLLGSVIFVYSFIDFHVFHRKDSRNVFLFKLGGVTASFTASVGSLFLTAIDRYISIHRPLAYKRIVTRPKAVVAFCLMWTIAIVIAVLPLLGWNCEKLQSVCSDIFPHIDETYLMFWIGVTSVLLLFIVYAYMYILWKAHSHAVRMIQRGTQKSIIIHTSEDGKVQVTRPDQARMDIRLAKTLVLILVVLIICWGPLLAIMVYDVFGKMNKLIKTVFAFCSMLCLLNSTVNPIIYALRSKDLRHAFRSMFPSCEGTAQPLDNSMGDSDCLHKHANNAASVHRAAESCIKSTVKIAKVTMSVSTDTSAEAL
The test is described as follows: CB1 radioligand competitive binding assay ([3H]CP 55,940 displacement).

Setting [1] is: 0.6 nM [3H]CP55,940, CHO-K1 membranes expressing human CB2 receptor, dose-response, read-out: CB2 IC50.
Where [2] appears, read: 0.8 nM [3H]CP 55,940, CHO-K1 membranes expressing human CB1 receptor, dose-response, read-out: CB1 IC50.

A word on the IC50: it is the midpoint of a concentration-inhibition curve.

Where two headings read alike, the source gives them in different places.

T1 sequence (P34972 whole entry): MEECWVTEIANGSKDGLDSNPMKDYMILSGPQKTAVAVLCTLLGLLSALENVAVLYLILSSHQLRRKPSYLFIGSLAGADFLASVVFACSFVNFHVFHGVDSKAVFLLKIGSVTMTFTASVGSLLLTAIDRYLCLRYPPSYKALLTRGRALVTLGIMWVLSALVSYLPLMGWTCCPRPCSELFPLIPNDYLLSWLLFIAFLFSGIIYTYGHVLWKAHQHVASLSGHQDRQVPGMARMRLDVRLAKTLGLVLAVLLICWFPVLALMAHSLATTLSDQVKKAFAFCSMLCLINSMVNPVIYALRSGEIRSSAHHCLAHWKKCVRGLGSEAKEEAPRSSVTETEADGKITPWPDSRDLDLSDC

Turning to `CCCCCc1cc2c(c(O)c1C(=O)NCc1cccnc1)[C@@H]1C=C(C)CC[C@H]1C(C)(C)O2` [Compound 15b, 1-hydroxy-6,6,9-trimethyl-3-pentyl-N-(pyridin-3-ylmethyl)-6a,7,8,10a-tetrahydro-6H-benzo[c]chromene-2-carboxamide], the IC50 was under 100 nM at human CB2 receptor (setting [1]) and over 1000 nM at human CB1 receptor (setting [2]). The “Selectivity CB2” value on human CB2 receptor was 19.07 fold.

Take `CCCCCc1cc2c(c(O)c1C(=O)N(CC)CC)[C@@H]1C=C(C)CC[C@H]1C(C)(C)O2` [Compound 50b, N,N-diethyl-1-hydroxy-6,6,9-trimethyl-3-pentyl-6a,7,8,10a-tetrahydro-6H-benzo[c]chromene-2-carboxamide]: the values for the IC50 on human CB2 receptor and at human CB1 receptor were under 100 nM and 100 to 490 nM, respectively. The “Selectivity CB2” value on human CB2 receptor is on record as 4.38 fold.

As for `CCCCCc1cc2c(c(O)c1C(=O)N1CCCC1)[C@@H]1C=C(C)CC[C@H]1C(C)(C)O2` [Compound 41b, (1-hydroxy-6,6,9-trimethyl-3-pentyl-6a,7,8,10a-tetrahydro-6H-benzo[c]chromen-2-yl)(pyrrolidin-1-yl)methanone], at human CB2 receptor, the IC50 fell in the range of 100 to 490 nM and the “Selectivity CB2” value is on record as 2.06 fold. Besides, at human CB1 receptor, the IC50 was in the range of 100 to 490 nM.

Turning to `CCCCCc1cc2c(c(O)c1C(=O)N1CCN(C(C)=O)CC1)[C@@H]1C=C(C)CC[C@H]1C(C)(C)O2` [Compound 36b, 1-(4-(1-hydroxy-6,6,9-trimethyl-3-pentyl-6a,7,8,10a-tetrahydro-6H-benzo[c]chromene-2-carbonyl)piperazin-1-yl)ethan-1-one], the IC50 on human CB2 receptor and on human CB1 receptor was over 1000 nM in each case. The “Selectivity CB1” value on human CB1 receptor (fold difference between CB1 and CB2 binding, printed in the column of the receptor with the higher binding affinity) is listed as 1.10 fold.

Take `CCCCCc1cc2c(c(O)c1C(=O)NC1CC1)[C@@H]1C=C(C)CC[C@H]1C(C)(C)O2` [Compound 6b, N-cyclopropyl-1-hydroxy-6,6,9-trimethyl-3-pentyl-6a,7,8,10a-tetrahydro-6H-benzo[c]chromene-2-carboxamide]: the half-inhibitory concentration (IC50) at human CB2 receptor was under 100 nM; on human CB1 receptor, 100 to 490 nM. Besides, the “Selectivity CB2” value at human CB2 receptor was determined as 9.08 fold.

For `CCCCCc1cc2c(c(O)c1C(=O)Nc1ccccc1)[C@@H]1C=C(C)CC[C@H]1C(C)(C)O2` [Compound 10b, 1-hydroxy-6,6,9-trimethyl-3-pentyl-N-phenyl-6a,7,8,10a-tetrahydro-6H-benzo[c]chromene-2-carboxamide], the concentration for half-maximal inhibition (IC50) on human CB2 receptor (setting [1]) and on human CB1 receptor (setting [2]) was under 100 nM throughout. Further, the “Selectivity CB2” value at human CB2 receptor worked out at 8.81 fold.

On to `CCCCCc1cc2c(c(O)c1C(=O)N1Cc3ccccc3C1)[C@@H]1C=C(C)CC[C@H]1C(C)(C)O2` [Compound 43b, (1-hydroxy-6,6,9-trimethyl-3-pentyl-6a,7,8,10a-tetrahydro-6H-benzo[c]chromen-2-yl)(isoindolin-2-yl)methanone], for which the 50% inhibitory concentration (IC50) on human CB2 receptor is 100 to 490 nM; on human CB1 receptor, over 1000 nM. In addition, the “Selectivity CB2” value at human CB2 receptor came out at 8.33 fold.

For `CCCCCc1cc2c(c(O)c1C(=O)N1CCOCC1)[C@@H]1C=C(C)CC[C@H]1C(C)(C)O2` [Compound 39b, (1-hydroxy-6,6,9-trimethyl-3-pentyl-6a,7,8,10a-tetrahydro-6H-benzo[c]chromen-2-yl)(morpholino)methanone], the IC50 on human CB2 receptor and at human CB1 receptor was 100 to 490 nM each time. The “Selectivity CB2” value on human CB2 receptor worked out at 1.53 fold.

In the case of `CCCCCc1cc2c(c(O)c1C(=O)NCC)[C@@H]1C=C(C)CC[C@H]1C(C)(C)O2` [Compound 3b, N-ethyl-1-hydroxy-6,6,9-trimethyl-3-pentyl-6a,7,8,10a-tetrahydro-6H-benzo[c]chromene-2-carboxamide], at human CB2 receptor, the IC50 was 100 to 490 nM and the “Selectivity CB2” value is recorded as 3.33 fold. This compound came in with an IC50 at human CB1 receptor of 500 to 990 nM.

With `CCCc1cc2c(c(O)c1C(=O)NC)[C@@H]1C=C(C)CC[C@H]1C(C)(C)O2` [Compound 58b, 1-hydroxy-N,6,6,9-tetramethyl-3-propyl-6a,7,8,10a-tetrahydro-6H-benzo[c]chromene-2-carboxamide], on human CB2 receptor, the IC50 is over 1000 nM and the “Selectivity CB2” value stood at 6.87 fold. On human CB1 receptor, this compound registered an IC50 of over 1000 nM.
